Test results taken from ChEMBL document CHEMBL3525909, “Metabolism of LY654322, a growth hormone secretagogue, to an unusual diimidazopyridine metabolite” (Drug Metab Dispos, 2011).

Key:
Liver [1] = assay: Drug metabolism in rat liver slices assessed as (2R,2'R)-2,2'-(diimidazo[4,5-b:4',5'-e]pyridine-1,7-diyl)bis(2-(4-fluorophenyl)-1-(pyrrolidin-1-yl)propan-1-one) formation at 50 uM after 24 hrs; format: ADME, tissue-based
[2] = Drug excretion in Fischer 344 rat urine assessed as (2R,2'R)-2,2'-(diimidazo[4,5-b:4',5'-e]pyridine-1,7-diyl)bis(2-(4-fluorophenyl)-1-(pyrrolidin-1-yl)propan-1-one) formation at 3 mg/kg, iv and 30 mg/kg, po by LC-MS analysis; format: ADME, organism-based; conditions: in vivo
[3] = Oral bioavailability in Fischer 344 rat at 30 mg/kg; format: ADME, organism-based; conditions: in vivo
[4] = Drug excretion in beagle dog urine assessed as (2R,2'R)-2,2'-(diimidazo[4,5-b:4',5'-e]pyridine-1,7-diyl)bis(2-(4-fluorophenyl)-1-(pyrrolidin-1-yl)propan-1-one) formation at 20 mg/kg, po by LC-MS analysis; format: ADME, organism-based, Canis lupus familiaris; set-up: dose 20 mg/kg, route oral; conditions: in vivo
Plasma [5] = assay: Drug metabolism in Fischer 344 rat plasma assessed as (R)-2-(4-amino-1H-imidazol-1-yl)-2-(4-fluorophenyl)-1-(pyrrolidin-1-yl)propan-1-one formation at 3 mg/kg, iv by LC-MS analysis; format: ADME, organism-based; set-up: dose 3 mg/kg, route intravenous; conditions: in vivo
Plasma [6] = assay: Drug metabolism in Fischer 344 rat plasma assessed as (R)-2-(2-amino-2-methylpropanamido)-5-phenylpentanoic acid formation at 3 mg/kg, iv by LC-MS analysis; format: ADME, organism-based; set-up: dose 3 mg/kg, route intravenous; conditions: in vivo
Liver [7] = assay: Drug metabolism in dog liver slices assessed as (2R,2'R)-2,2'-(diimidazo[4,5-b:4',5'-e]pyridine-1,7-diyl)bis(2-(4-fluorophenyl)-1-(pyrrolidin-1-yl)propan-1-one) formation at 50 uM after 24 hrs; format: ADME, tissue-based, Canis lupus familiaris
[8] = Plasma clearance in beagle dog at 1 mg/kg, iv; format: ADME, organism-based, Canis lupus familiaris; set-up: dose 1 mg/kg, route intravenous
[9] = Plasma clearance in Fischer 344 rat at 3 mg/kg, iv; format: ADME, organism-based; set-up: dose 3 mg/kg, route intravenous
[10] = Drug excretion in Fischer 344 rat urine assessed as (2R,2'R)-2,2'-(diimidazo[4,5-b:4',5'-e]pyridine-1,7-diyl)bis(2-(4-fluorophenyl)-1-(pyrrolidin-1-yl)propan-1-one) formation at 3 mg/kg, iv and 30 mg/kg, po by LC-UV spectrophotometry; format: ADME, organism-based; conditions: in vivo
[11] = Oral bioavailability in beagle dog at 3 mg/kg; format: ADME, organism-based, Canis lupus familiaris; conditions: in vivo
[12] = Drug excretion in beagle dog urine assessed as (R)-2-(4-amino-1H-imidazol-1-yl)-2-(4-fluorophenyl)-1-(pyrrolidin-1-yl)propan-1-one formation at 20 mg/kg, po by LC-MS analysis; format: ADME, organism-based, Canis lupus familiaris; set-up: dose 20 mg/kg, route oral; conditions: in vivo
[13] = Drug metabolism in human hepatocytes assessed as (2R,2'R)-2,2'-(diimidazo[4,5-b:4',5'-e]pyridine-1,7-diyl)bis(2-(4-fluorophenyl)-1-(pyrrolidin-1-yl)propan-1-one) formation at 50 uM after 4 hrs; format: ADME, cell-based, Hepatocyte
[14] = Drug excretion in Fischer 344 rat urine assessed as (R)-2-(4-amino-1H-imidazol-1-yl)-2-(4-fluorophenyl)-1-(pyrrolidin-1-yl)propan-1-one formation at 3 mg/kg, iv and 30 mg/kg, po by LC-MS analysis; format: ADME, organism-based; conditions: in vivo
Plasma [15] = assay: Drug metabolism in beagle dog plasma assessed as (R)-2-(4-amino-1H-imidazol-1-yl)-2-(4-fluorophenyl)-1-(pyrrolidin-1-yl)propan-1-one formation at 1 mg/kg, iv by LC-MS analysis; format: ADME, organism-based, Canis lupus familiaris; set-up: dose 1 mg/kg, route intravenous; conditions: in vivo
[16] = Terminal half life in beagle dog at 1 mg/kg, iv; format: ADME, organism-based, Canis lupus familiaris; set-up: dose 1 mg/kg, route intravenous; conditions: in vivo, read-out: beta t1/2 (converted)
[17] = Terminal half life in Fischer 344 rat at 3 mg/kg, iv; format: ADME, organism-based; set-up: dose 3 mg/kg, route intravenous; conditions: in vivo, read-out: beta t1/2 (converted)
Plasma [18] = assay: Drug level in beagle dog plasma treated with 2-Methylalanyl-N-{1-[(1R)-1-(4-fluorophenyl)-1-methyl-2-oxo-2-pyrrolidin-1-ylethyl]-1H-imidazol-4-yl}-5-phenyl-D-norvalinamide at 1 mg/kg, iv by LC-MS/MS analysis; format: ADME, organism-based, Canis lupus familiaris; set-up: dose 1 mg/kg, route intravenous; conditions: in vivo
[19] = Drug level in beagle dog urine treated with 2-Methylalanyl-N-{1-[(1R)-1-(4-fluorophenyl)-1-methyl-2-oxo-2-pyrrolidin-1-ylethyl]-1H-imidazol-4-yl}-5-phenyl-D-norvalinamide at 20 mg/kg, po by LC-MS analysis; format: ADME, organism-based, Canis lupus familiaris; set-up: dose 20 mg/kg, route oral; conditions: in vivo
Plasma [20] = assay: Drug level in Fischer 344 rat plasma treated with 2-Methylalanyl-N-{1-[(1R)-1-(4-fluorophenyl)-1-methyl-2-oxo-2-pyrrolidin-1-ylethyl]-1H-imidazol-4-yl}-5-phenyl-D-norvalinamide at 3 mg/kg, iv by LC-MS/MS analysis; format: ADME, organism-based; set-up: dose 3 mg/kg, route intravenous; conditions: in vivo
[21] = Drug level in Fischer 344 rat urine treated with 2-Methylalanyl-N-{1-[(1R)-1-(4-fluorophenyl)-1-methyl-2-oxo-2-pyrrolidin-1-ylethyl]-1H-imidazol-4-yl}-5-phenyl-D-norvalinamide at 3 mg/kg, iv and 30 mg/kg, po by LC-MS analysis; format: ADME, organism-based; conditions: in vivo
[22] = Drug level in Fischer 344 rat urine treated with 2-Methylalanyl-N-{1-[(1R)-1-(4-fluorophenyl)-1-methyl-2-oxo-2-pyrrolidin-1-ylethyl]-1H-imidazol-4-yl}-5-phenyl-D-norvalinamide at 3 mg/kg, iv and 30 mg/kg, po by LC-UV spectrophotometry; format: ADME, organism-based; conditions: in vivo

## CC(C)(N)C(=O)N[C@H](CCCc1ccccc1)C(=O)Nc1cn([C@@](C)(C(=O)N2CCCC2)c2ccc(F)cc2)cn1
Liver [1]
  Drug metabolism: metabolite_not_detected
[2]
  Drug excretion: metabolite_detected
[3]
  bioavailability: 74%
[4]
  Drug excretion: metabolite_detected
Plasma [5]
  Drug metabolism: metabolite_detected
Plasma [6]
  Drug metabolism: metabolite_detected
Liver [7]
  Drug metabolism: metabolite_not_detected
[8]
  clearance: 33 mL/min/kg
[9]
  clearance: 75 mL/min/kg
[10]
  Drug excretion: metabolite_detected
[11]
  bioavailability: 33%
[12]
  Drug excretion: metabolite_detected
[13]
  Drug metabolism: metabolite_not_detected
[14]
  Drug excretion: metabolite_detected
Plasma [15]
  Drug metabolism: metabolite_detected
[16]
  half-life: 5 h
[17]
  half-life: 2 h

## C[C@](C(=O)N1CCCC1)(c1ccc(F)cc1)n1cnc(N)c1
Plasma [18]
  Drug metabolism: metabolite_detected
[19]
  Drug excretion: metabolite_detected
Plasma [20]
  Drug metabolism: metabolite_detected
[21]
  Drug excretion: metabolite_detected

## CC(C)(N)C(=O)N[C@H](CCCc1ccccc1)C(=O)O
Plasma [20]
  Drug metabolism: metabolite_detected

## C[C@](C(=O)N1CCCC1)(c1ccc(F)cc1)n1cnc2nc3ncn([C@@](C)(C(=O)N4CCCC4)c4ccc(F)cc4)c3cc21
[19]
  Drug excretion: metabolite_detected
[22]
  Drug excretion: metabolite_detected
[21]
  Drug excretion: metabolite_detected
